Some results are limits rather than exact numbers.

Assay [1] relates to HCV 1a genotype replicon (strain H77, Huh-1a7 cells). Description: HCV replicon assay, qRT-PCR, genotype 1a replicon cell line (Huh-1a7). Format: cell-based. To be noted: HCV genotype 1a replicon, HCV RNA by qRT-PCR normalized to GAPDH RNA. From the text:
(§1) HCV replicon cell lines (kindly provided by R. Bartenschlager) isolated from colonies as described by Lohman et al. (Lohman et al. (1999) Science 285: 110-113, expressly incorporated by reference in its entirety) and used for all experiments. One of the HCV replicon cell lines (strain Con1, genotype 1b) has the nucleic acid sequence set forth in EMBL Accession No.: AJ242651, the coding sequence of which is from nucleotides 1801 to 8406. Another replicon cell line (strain H77, genotype 1a) was constructed as described by Yi et al. (Yi et al. (2004) Journal of Virology 78(15):7904-15). […]
(§2) EC50 values of single agent compounds were determined by HCV RNA detection using quantitative RT-PCR, according to the manufacturer's instructions, with a TAQMAN® One-Step RT-PCR Master Mix Reagents Kit (Cat# AB 4309169, Applied Biosystems) on an ABI Model 7500 thermocycler. EC50 values of combinations are similarly determined by HCV RNA detection using quantitative RT-PCR. The TAQMAN primers to use for detecting and quantifying HCV RNA obtained from Integrated DNA Technologies. HCV RNA is normalized to GAPDH RNA levels in drug-treated cells, which is detected and quantified using the Human GAPDH Endogenous Control Mix (Applied Biosystems, AB 4310884E). […] Chemical agent cytotoxicity is evaluated using an MTS assay according to the manufacturer's directions (Promega). […]
In general terms: Replicon systems follow genome replication, usually without infectious particles.

In assay [2] the test system is HCV 1b genotype replicon (strain Con1, SGR 11-7 cells). As to the kind of experiment: HCV replicon assay, qRT-PCR, genotype 1b replicon cell line (SGR 11-7). Format: cell-based. To be noted: HCV genotype 1b replicon, HCV RNA by qRT-PCR normalized to GAPDH RNA.
Excerpt: as §1, §2

For orientation: EC50 means the concentration needed to bring the measured effect to its halfway point. Consider Allisporivir, for which the EC50 in assay [1] and in assay [2] was < 200 nM throughout.

Turning to `CC(C)CCCCN1CCOCC1` [Example 1], the EC50 in assay [1] (Hepatitis C virus) and in assay [2] (Hepatitis C virus) was < 200 nM each time.

The values above are taken from patent US8906853B2, “[N-Me-4-hydroxyleucine]-9-cyclosporin analogues for treatment and prevention of hepatitis C infection” (Enanta Pharmaceuticals, Inc., priority 2012, dated 2014).
